The source of these data is ChEMBL document CHEMBL2034839, “Pharmacophore Refinement Guides the Rational Design of Nanomolar-Range Inhibitors of the Botulinum Neurotoxin Serotype A Metalloprotease” (ACS Med Chem Lett, 2010).

For assay [1], the target named is Botulinum neurotoxin type A (Clostridium botulinum, UniProt P0DPI0). The assay is described as follows: Inhibition of Clostridium botulinum BoNT/A light chain assessed as inhibition of SNAP-25 (187-203) substrate hydrolysis by RP-HPLC-based assay in presence of excess Zn(II).
Sequence of Botulinum neurotoxin type A (P0DPI0 2-448 limits assumed): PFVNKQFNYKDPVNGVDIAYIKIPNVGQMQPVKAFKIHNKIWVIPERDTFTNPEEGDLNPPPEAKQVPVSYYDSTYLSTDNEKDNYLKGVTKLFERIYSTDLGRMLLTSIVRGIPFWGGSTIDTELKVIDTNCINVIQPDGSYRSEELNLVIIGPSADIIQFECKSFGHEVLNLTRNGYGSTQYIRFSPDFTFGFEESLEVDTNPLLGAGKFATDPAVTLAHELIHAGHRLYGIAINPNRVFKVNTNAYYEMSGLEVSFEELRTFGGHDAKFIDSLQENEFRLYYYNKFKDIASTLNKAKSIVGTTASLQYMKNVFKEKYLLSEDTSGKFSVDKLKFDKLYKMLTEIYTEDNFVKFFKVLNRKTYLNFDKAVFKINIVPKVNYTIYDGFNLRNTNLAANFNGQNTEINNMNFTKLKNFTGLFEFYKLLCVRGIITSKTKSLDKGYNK
For assay [2], the target named is Botulinum neurotoxin type A (Clostridium botulinum) (UniProt P0DPI0). The assay is described as follows: Competitive inhibition of Clostridium botulinum BoNT/A light chain assessed as inhibition of SNAP-25 (187-203) substrate hydrolysis by Dixon plot analysis.
Sequence of Botulinum neurotoxin type A (Clostridium botulinum) (P0DPI0 2-448 limits assumed): as above

Structures are written as SMILES. Calls of active or inactive are those of the source. The calls are words filed in the database; no cut-off is given here.

Turning to `O=C(NCCCNc1ccnc2cc(Cl)ccc12)c1cc(NC(=O)c2ccc(C(=O)Nc3cc(C(=O)NCCCNc4ccnc5cc(Cl)ccc45)cc(C4=NCCN4)c3)cc2)cc(C2=NCCN2)c1`, the Ki (as a rule, the equilibrium dissociation constant of an inhibitor or competing ligand from its target) in assay [1] turned out to be 0.572 µM. The inhibition entry in assay [2] was “Active”.
Take `O=C(NCCCCNc1ccnc2cc(Cl)ccc12)c1cc(NC(=O)c2ccc(C(=O)Nc3cc(C(=O)NCCCCNc4ccnc5cc(Cl)ccc45)cc(C4=NCCN4)c3)cc2)cc(C2=NCCN2)c1`: the Ki in assay [1] worked out at 0.9 µM. In addition, the inhibition result in assay [2] was “Active”.
Taken in the same sequence, the figures for `O=C(NCCNc1ccnc2cc(Cl)ccc12)c1cc(NC(=O)c2ccc(C(=O)Nc3cc(C(=O)NCCNc4ccnc5cc(Cl)ccc45)cc(C4=NCCN4)c3)cc2)cc(C2=NCCN2)c1` were 2.12 µM and “Active”.
As for `CCCCNC(=O)c1cc(NC(=O)c2ccc(C(=O)Nc3cc(C(=O)NCCCC)cc(C4=NCCN4)c3)cc2)cc(C2=NCCN2)c1`, the inhibition constant (Ki) in assay [1] was found to be 8.52 µM.
